Source: patent publication US20120101257A1, “PROCESSES FOR PREPARING AMINO-SUBSTITUTED GAMMA-LACTAMS” (UNIVERSITE DE MONTREAL, priority 2009, published 2012)
*1 amine or outer side, *2 acyl side, *3 side chain or, on linkers, in order; H or OH if unused. Where a SMILES comes first, the peptide text is derived from it. [ ]: non-standard residue; d: D form. The star is where a group is joined. X12 = CC(C)C[C@@H](NC(=N)[C@@H](CCC(=O)O)N1C[C@H](N[*:1])CC1=O)C(=O)[*:2]; X13 = C[C@@H](O)[C@H](C(=O)[*:2])N1C[C@H](N[*:1])CC1=O; X11 = N[C@@H]1CCN([C@H](Cc2ccc(O)cc2)C(=O)*)C1=O; d(aThr) = C[C@@H](O)[C@@H](N)C(=O)O

Assays:
TF-1 cells = test: [3H]thymidine incorporation, IL-1 induced TF-1 cell proliferation; format: cell-based, human; conditions: for percentage of proliferation of TF-1 cells pre-treated with peptide: IL-1 induced, [3H]thymidine incorporation as in Example 59
Experimental: Human TF-1 cells (5×10^4 cells/well) were cultured in complete RPMI medium (GIBCO RPMI Medium 1640, Invitrogen) supplemented with GM-CSF (Granulocyte Macrophage Colony Stimulating Factor, 2 ng/ml; BD Biosource). Cells were deprived of growth factors for 18 h before preincubation with lactam peptide (1 μM) followed by treatment with IL-1β (10 or 25 ng/mL). After 24 h incubation at 37° C., [^3H]thymidine (1 μCi/mL; Amersham) was added and the cells were incubated for another 24 h. Cells were harvested, washed two times with PBS (10 mM Na2HPO4, 2 mM KH2PO4, 137 mM NaCl, 2.7 mM KCl; pH 7.4) and lysed with a 0.1 N NaOH/0.1% Triton X-100 solution. Scintillation cocktail (Fisher Scientific, 8 mL/sample) was added to the lysate, and after 3 h, radioactivity was measured (Beckman Multi-Purpose Scintillation Coulter Counter LS6500). Results were analyzed by one- or two-way ANOVA factoring for concentration or treatments. Postanova comparisons among means were performed using the Tukey-Framer method. Statistical significance was set at p<0.05. Data are presented as mean±SEM.

[1] = lactam peptide 1 μM, IL-1β 10 or 25 ng/mL

COC(=O)C[C@H]1COS(=O)(=O)N1C(=O)OCC1c2ccccc2-c2ccccc21 [(4S)-17, (4S)-Methyl-2-[3-(9-fluorenylmethoxycarbonyl)-2,2-dioxo-1,2,3-oxathiazolidin-4-yl]acetate]
melting point: 138 to 140 °C

CC(C)C[C@@H](NC(=O)[C@@H](CCC(=O)O)NC(=O)[C@H](NC(=O)[C@H](NC(=O)[C@@H](Cc1ccc(O)cc1)N1CC[C@@H](N)C1=O)[C@@H](C)O)C(C)C)C(=O)N[C@H](C)C(N)=O [Compound 54, (R)-Agl-D-Tyr-D-Thr-D-Val-D-Glu-D-Leu-D-Ala-NH2] (X11-[d(aThr)][dV][dE][dL][dA]-NH2)
increase in efficacy compared to 101.10, inhibition of IL-1 induced TF-1 proliferation (TF-1 cells; [1]): 2.2 fold

CC(C)C[C@@H](NC(=O)[C@@H](CCC(=O)O)NC(=O)[C@@H](C(C)C)N1CC[C@@H](NC(=O)[C@@H](Cc2ccc(O)cc2)NC(=O)[C@H](N)CCCNC(=N)N)C1=O)C(=O)N[C@H](C)C(N)=O [Compound 56, D-Arg-D-Tyr-(R)-Agl-D-Val-D-Glu-D-Leu-D-Ala-NH2]
inhibition of IL-1 induced TF-1 proliferation (in words) (TF-1 cells; [1]): failed to block proliferation

CC(C)C[C@@H](NC(=O)[C@@H](CCC(=O)O)NC(=O)[C@H](NC(=O)[C@@H]([C@@H](C)O)N1C[C@H](NC(=O)[C@H](N)CCCNC(=N)N)CC1=O)C(C)C)C(=O)N[C@H](C)C(N)=O [Compound 76, D-Arg-(R)-Bgl-D-Thr-D-Val-D-Glu-D-Leu-D-Ala-NH2] (H-[dR][X13][dV][dE][dL][dA]-NH2)
increase in efficacy compared to 101.10, inhibition of IL-1 induced TF-1 proliferation (TF-1 cells; [1]): 1.7 fold

CC(C)C[C@@H](NC(=N)[C@@H](CCC(=O)O)N1C[C@H](NC(=O)[C@H](NC(=O)[C@@H](Cc2ccc(O)cc2)NC(=O)[C@H](N)CCCNC(=N)N)[C@@H](C)O)CC1=O)C(=O)N[C@H](C)C(N)=O [Compound 78, D-Arg-D-Tyr-D-Thr-(R)-Bgl-D-Glu-D-Leu-D-Ala-NH2] (H-[dR][dY][d(aThr)][X12][dA]-NH2)
increase in efficacy compared to 101.10, inhibition of IL-1 induced TF-1 proliferation (TF-1 cells; [1]): 2.4 fold

D-Arg-D-Tyr-(S)-Agl-D-Val-D-Glu-D-Leu-D-Ala-NH2 [Compound 93]
percentage of proliferation of TF-1 cells pre-treated with peptide (TF-1 cells): 150%

D-Arg-D-Tyr-D-Thr-(S)-Agl-D-Glu-D-Leu-D-Ala-NH2 [Compound 94]
percentage of proliferation of TF-1 cells pre-treated with peptide (TF-1 cells): 132%
